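Cells were grown in 96-well plates and exposed to each compound for 48 hours at five concentrations; endpoints were interpolated linearly between bracketing concentrations, or set to the highest concentration if not reached. At the GI50, growth is halved.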 Calls of active or inactive are those of the source. Rule as the data show it: active = GI50 up to about 1.1 µM and inactive = higher.
Legend:
Assay in all cases: growth of human tumour cells (NCI), 48 h
[1] = system: MDA-MB-435
[2] = system: HOP-92
[3] = system: UACC-257
[4] = system: SF-539
[5] = system: IGROV-1
[6] = system: RPMI-8226
[7] = system: MOLT-4
[8] = system: HCT-116
[9] = system: EKVX
[10] = system: DU-145
[11] = system: M14
[12] = system: 786-0
[13] = system: NCI-H460
[14] = system: HOP-62
[15] = system: MDA-MB-231
[16] = system: LOX IMVI
[17] = system: Malme-3M
[18] = system: HL-60
[19] = system: OVCAR-4
[20] = system: K562
[21] = system: MCF7
[22] = system: SK-MEL-5
[23] = system: NCI/ADR-RES
[24] = system: U-251
[25] = system: OVCAR-8
[26] = system: A549
[27] = system: MDA-N
[28] = system: Hs-578T
[29] = system: OVCAR-5
[30] = system: SF-268
[31] = system: SNB-75
[32] = system: SN12C
[33] = system: HCT-15
[34] = system: ACHN
[35] = system: SW-620
[36] = system: UO-31
[37] = system: SNB-19
[38] = system: NCI-H23
[39] = system: OVCAR-3
[40] = system: CAKI-1
[41] = system: CCRF-CEM
[42] = system: SK-MEL-2
[43] = system: RXF 393
[44] = system: BT-549
[45] = system: COLO 205
[46] = system: A498
[47] = system: PC-3
[48] = system: T47D
[49] = system: TK-10
[50] = system: SR
[51] = system: HT-29
[52] = system: NCI-H226
[53] = system: SF-295
[54] = system: NCI-H522
[55] = system: SK-OV-3
[56] = system: UACC-62
[57] = system: SK-MEL-28
[58] = system: KM12
[59] = system: HCC 2998

## CCOC(=O)c1c(CN2CCCC2)n(-c2ccccc2)c2cc(Br)c(OC)cc12
[1]
  GI50: 26.9 µM (inactive)
[2]
  GI50: 10.6 µM (inactive)
[3]
  GI50: 13.2 µM (inactive)
[4]
  GI50: 23.6 µM (inactive)
[5]
  GI50: 16.5 µM (inactive)
[6]
  GI50: 12.8 µM (inactive)
[7]
  GI50: 4.41 µM (inactive)
[8]
  GI50: 11.2 µM (inactive)
[9]
  GI50: 20 µM (inactive)
[10]
  GI50: 17.7 µM (inactive)
[11]
  GI50: 16.3 µM (inactive)
[12]
  GI50: 15 µM (inactive)
[13]
  GI50: 6.89 µM (inactive)
[14]
  GI50: 8.75 µM (inactive)
[15]
  GI50: 17.2 µM (inactive)
[16]
  GI50: 13.8 µM (inactive)
[17]
  GI50: 16.7 µM (inactive)
[18]
  GI50: 12.5 µM (inactive)
[19]
  GI50: 33.4 µM (inactive)
[20]
  GI50: 16.2 µM (inactive)
[21]
  GI50: 6.87 µM (inactive)
[22]
  GI50: 12.3 µM (inactive)
[23]
  GI50: 15.2 µM (inactive)
[24]
  GI50: 16.1 µM (inactive)
[25]
  GI50: 29.2 µM (inactive)
[26]
  GI50: 7.35 µM (inactive)
[27]
  GI50: 29.3 µM (inactive)
[28]
  GI50: 29.9 µM (inactive)
[29]
  GI50: 19.5 µM (inactive)
[30]
  GI50: 46.6 µM (inactive)
[31]
  GI50: 5.97 µM (inactive)
[32]
  GI50: 26.1 µM (inactive)
[33]
  GI50: 14.4 µM
[34]
  GI50: 11.1 µM (inactive)
[35]
  GI50: 18 µM (inactive)
[36]
  GI50: 11.5 µM (inactive)
[37]
  GI50: 33.7 µM (inactive)
[38]
  GI50: 20.5 µM (inactive)
[39]
  GI50: 24.9 µM (inactive)
[40]
  GI50: 41.6 µM (inactive)
[41]
  GI50: 8.87 µM (inactive)
[42]
  GI50: 18 µM (inactive)
[43]
  GI50: 0.574 µM (active)
[44]
  GI50: 18.7 µM (inactive)
[45]
  GI50: 11.8 µM (inactive)
[46]
  GI50: 4.78 µM (inactive)
[47]
  GI50: 20.8 µM (inactive)
[48]
  GI50: 14.5 µM (inactive)
[49]
  GI50: 11.8 µM (inactive)
[50]
  GI50: 6.14 µM (inactive)
[51]
  GI50: 7.57 µM (inactive)
[52]
  GI50: 13.3 µM (inactive)
[53]
  GI50: 14.8 µM (inactive)
[54]
  GI50: 13.7 µM (inactive)
[55]
  GI50: 25.5 µM (inactive)
[56]
  GI50: 10.9 µM (inactive)
[57]
  GI50: 15.6 µM (inactive)

## CN(C)C1C(O)=C(C(=O)NCN2CCCC2)C(=O)C2(O)C(O)=C3C(=O)c4c(O)cccc4C(C)(O)C3CC12 (centres undefined)
[1]
  GI50: 34.5 µM (inactive)
[2]
  GI50: > 100 µM (inactive)
[3]
  GI50: 69.2 µM (inactive)
[5]
  GI50: > 100 µM (inactive)
[6]
  GI50: > 100 µM (inactive)
[7]
  GI50: 40 µM (inactive)
[8]
  GI50: > 100 µM (inactive)
[9]
  GI50: > 100 µM (inactive)
[10]
  GI50: 62.2 µM (inactive)
[11]
  GI50: 77.3 µM (inactive)
[12]
  GI50: > 100 µM (inactive)
[14]
  GI50: > 100 µM (inactive)
[15]
  GI50: 29.2 µM (inactive)
[16]
  GI50: > 100 µM (inactive)
[17]
  GI50: 25.6 µM (inactive)
[58]
  GI50: > 100 µM (inactive)
[18]
  GI50: > 100 µM (inactive)
[19]
  GI50: > 100 µM (inactive)
[20]
  GI50: 57 µM (inactive)
[21]
  GI50: 54.6 µM (inactive)
[22]
  GI50: > 100 µM (inactive)
[23]
  GI50: > 100 µM (inactive)
[24]
  GI50: 88.9 µM (inactive)
[25]
  GI50: > 100 µM (inactive)
[26]
  GI50: 69.3 µM (inactive)
[27]
  GI50: > 100 µM (inactive)
[28]
  GI50: > 100 µM (inactive)
[29]
  GI50: > 100 µM (inactive)
[30]
  GI50: > 100 µM (inactive)
[31]
  GI50: 52.4 µM (inactive)
[32]
  GI50: > 100 µM (inactive)
[33]
  GI50: > 100 µM
[34]
  GI50: > 100 µM (inactive)
[35]
  GI50: > 100 µM (inactive)
[36]
  GI50: > 100 µM (inactive)
[37]
  GI50: > 100 µM (inactive)
[38]
  GI50: 63.5 µM (inactive)
[39]
  GI50: > 100 µM (inactive)
[40]
  GI50: > 100 µM (inactive)
[41]
  GI50: 59 µM (inactive)
[42]
  GI50: > 100 µM (inactive)
[43]
  GI50: > 100 µM (inactive)
[44]
  GI50: > 100 µM (inactive)
[45]
  GI50: > 100 µM (inactive)
[46]
  GI50: > 100 µM (inactive)
[47]
  GI50: > 100 µM (inactive)
[48]
  GI50: > 100 µM (inactive)
[49]
  GI50: 60.7 µM (inactive)
[50]
  GI50: > 100 µM (inactive)
[51]
  GI50: > 100 µM (inactive)
[52]
  GI50: > 100 µM (inactive)
[53]
  GI50: > 100 µM (inactive)
[54]
  GI50: > 100 µM (inactive)
[55]
  GI50: > 100 µM (inactive)
[56]
  GI50: > 100 µM (inactive)
[57]
  GI50: > 100 µM (inactive)

## CC1CN(c2cc3c(cc2F)c(=O)c(C(=O)O)cn3-c2ccc(N3CCN(C)CC3)cn2)CC(C)N1 (centres undefined)
[1]
  GI50: > 100 µM (inactive)
[2]
  GI50: > 100 µM (inactive)
[3]
  GI50: > 100 µM (inactive)
[4]
  GI50: > 100 µM (inactive)
[5]
  GI50: > 100 µM (inactive)
[6]
  GI50: > 100 µM (inactive)
[7]
  GI50: 99.5 µM (inactive)
[8]
  GI50: > 100 µM (inactive)
[9]
  GI50: > 100 µM (inactive)
[10]
  GI50: > 100 µM (inactive)
[11]
  GI50: > 100 µM (inactive)
[12]
  GI50: > 100 µM (inactive)
[13]
  GI50: > 100 µM (inactive)
[14]
  GI50: 89.9 µM (inactive)
[15]
  GI50: > 100 µM (inactive)
[17]
  GI50: > 100 µM (inactive)
[58]
  GI50: 87.5 µM (inactive)
[18]
  GI50: > 100 µM (inactive)
[19]
  GI50: > 100 µM (inactive)
[20]
  GI50: 65.6 µM (inactive)
[21]
  GI50: 98.9 µM (inactive)
[23]
  GI50: > 100 µM (inactive)
[24]
  GI50: 70.5 µM (inactive)
[25]
  GI50: 44.5 µM (inactive)
[26]
  GI50: > 100 µM (inactive)
[27]
  GI50: > 100 µM (inactive)
[28]
  GI50: > 100 µM (inactive)
[29]
  GI50: > 100 µM (inactive)
[30]
  GI50: > 100 µM (inactive)
[31]
  GI50: > 100 µM (inactive)
[32]
  GI50: > 100 µM (inactive)
[33]
  GI50: > 100 µM
[35]
  GI50: 98.4 µM (inactive)
[36]
  GI50: > 100 µM (inactive)
[37]
  GI50: 70 µM (inactive)
[38]
  GI50: > 100 µM (inactive)
[39]
  GI50: > 100 µM (inactive)
[40]
  GI50: > 100 µM (inactive)
[41]
  GI50: > 100 µM (inactive)
[43]
  GI50: > 100 µM (inactive)
[44]
  GI50: > 100 µM (inactive)
[45]
  GI50: 52.8 µM (inactive)
[46]
  GI50: > 100 µM (inactive)
[47]
  GI50: > 100 µM (inactive)
[48]
  GI50: > 100 µM (inactive)
[49]
  GI50: > 100 µM (inactive)
[50]
  GI50: > 100 µM (inactive)
[51]
  GI50: > 100 µM (inactive)
[52]
  GI50: > 100 µM (inactive)
[53]
  GI50: > 100 µM (inactive)
[55]
  GI50: > 100 µM (inactive)
[56]
  GI50: > 100 µM (inactive)
[57]
  GI50: > 100 µM (inactive)

## N#Cc1c(NC(=S)Nc2ccccc2)sc2c1CCCC2
[1]
  GI50: > 100 µM (inactive)
[3]
  GI50: > 100 µM (inactive)
[5]
  GI50: > 100 µM (inactive)
[6]
  GI50: > 100 µM (inactive)
[7]
  GI50: > 100 µM (inactive)
[8]
  GI50: > 100 µM (inactive)
[9]
  GI50: > 100 µM (inactive)
[10]
  GI50: > 100 µM (inactive)
[12]
  GI50: > 100 µM (inactive)
[13]
  GI50: > 100 µM (inactive)
[14]
  GI50: > 100 µM (inactive)
[15]
  GI50: > 100 µM (inactive)
[16]
  GI50: > 100 µM (inactive)
[17]
  GI50: > 100 µM (inactive)
[58]
  GI50: > 100 µM (inactive)
[18]
  GI50: > 100 µM (inactive)
[19]
  GI50: > 100 µM (inactive)
[20]
  GI50: > 100 µM (inactive)
[21]
  GI50: > 100 µM (inactive)
[22]
  GI50: > 100 µM (inactive)
[23]
  GI50: > 100 µM (inactive)
[24]
  GI50: > 100 µM (inactive)
[25]
  GI50: > 100 µM (inactive)
[27]
  GI50: > 100 µM (inactive)
[28]
  GI50: > 100 µM (inactive)
[29]
  GI50: > 100 µM (inactive)
[30]
  GI50: > 100 µM (inactive)
[31]
  GI50: > 100 µM (inactive)
[32]
  GI50: > 100 µM (inactive)
[33]
  GI50: > 100 µM
[59]
  GI50: > 100 µM (inactive)
[34]
  GI50: > 100 µM (inactive)
[35]
  GI50: > 100 µM (inactive)
[36]
  GI50: > 100 µM (inactive)
[37]
  GI50: > 100 µM (inactive)
[38]
  GI50: > 100 µM (inactive)
[39]
  GI50: > 100 µM (inactive)
[40]
  GI50: > 100 µM (inactive)
[42]
  GI50: > 100 µM (inactive)
[43]
  GI50: > 100 µM (inactive)
[44]
  GI50: > 100 µM (inactive)
[45]
  GI50: > 100 µM (inactive)
[46]
  GI50: > 100 µM (inactive)
[47]
  GI50: > 100 µM (inactive)
[48]
  GI50: > 100 µM (inactive)
[49]
  GI50: > 100 µM (inactive)
[50]
  GI50: > 100 µM (inactive)
[51]
  GI50: > 100 µM (inactive)
[52]
  GI50: > 100 µM (inactive)
[53]
  GI50: > 100 µM (inactive)
[54]
  GI50: > 100 µM (inactive)
[56]
  GI50: 94.2 µM (inactive)
[57]
  GI50: > 100 µM (inactive)

Reference: ChEMBL document CHEMBL1201862, “PubChem BioAssay data set” (2004)
